The results in this text go back to patent US9169254B2, “Spiroimidazolone derivative” (Chugai Seiyaku Kabushiki Kaisha, priority 2009, dated 2015).

The assay has as its target T1, human PTH1 receptor (Homo sapiens, UniProt Q03431).
T1 sequence (Q03431 27-593): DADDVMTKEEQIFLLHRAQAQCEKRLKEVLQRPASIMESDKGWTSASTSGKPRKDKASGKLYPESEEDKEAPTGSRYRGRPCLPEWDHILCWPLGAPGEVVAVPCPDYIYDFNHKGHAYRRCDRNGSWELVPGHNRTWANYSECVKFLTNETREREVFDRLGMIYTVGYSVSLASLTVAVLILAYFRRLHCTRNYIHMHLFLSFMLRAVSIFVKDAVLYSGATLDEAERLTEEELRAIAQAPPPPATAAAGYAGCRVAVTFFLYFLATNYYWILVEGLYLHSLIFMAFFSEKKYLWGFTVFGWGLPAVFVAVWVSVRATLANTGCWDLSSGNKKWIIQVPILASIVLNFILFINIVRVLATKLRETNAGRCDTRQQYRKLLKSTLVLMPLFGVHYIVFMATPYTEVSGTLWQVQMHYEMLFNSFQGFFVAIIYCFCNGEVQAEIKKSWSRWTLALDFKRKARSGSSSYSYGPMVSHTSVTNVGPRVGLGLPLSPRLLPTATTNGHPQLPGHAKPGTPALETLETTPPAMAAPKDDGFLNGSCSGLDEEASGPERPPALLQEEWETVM
The assay can be described thus: In vitro cAMP signal activity in HKRK-B7 cells (LLC-PK1 cells overexpressing the human PTH1 receptor). Type of assay: cell-based. To be noted: HKRK-B7 cells; compound at 1×10^−3 M; cAMP produced as percentage of that produced by hPTH(1-34) at 100 nM.

Regarding `CC(=O)N(CCOCCO)c1ccc(/C=C/S(=O)(=O)N2CCC3(CC2)N=C(C2CCC(CCC(F)(F)F)CC2)NC3=O)c(C)c1` (stereo not drawn) [Compound 544, N-[2-(2-hydroxy-ethoxy)-ethyl]-N-[3-methyl-4-((E)-2-{4-oxo-2-[4-(3,3,3-trifluoro-propyl)-cyclohexyl]-1,3,8-triaza-spiro[4.5]dec-1-ene-8-sulfonyl}-vinyl)-phenyl]-acetamide], the “cAMP production activity (%)” value worked out at 80%.

As to `CCCCC1CCC(C2=NC3(CCN(S(=O)(=O)CCc4ccc(N5C(=O)CNC5=O)cc4C)CC3)C(=O)N2)CC1` (stereo not drawn) [Compound 880, 3-(4-{2-[2-(4-Butyl-cyclohexyl)-4-oxo-1,3,8-triaza-spiro[4.5]dec-1-ene-8-sulfonyl]-ethyl}-3-methyl-phenyl)-imidazolidine-2,4-dione], the “cAMP production activity (%)” value is 68%.

As to `Cc1cc(C(=O)N(C)C)ccc1CCS(=O)(=O)N1CCC2(CC1)N=C(N(C)c1ccc(C(F)(F)F)cc1)NC2=O` [Compound 1400, 3,N,N-trimethyl-4-(2-{2-[methyl-(4-trifluoromethyl-phenyl)-amino]-4-oxo-1,3,8-triaza-spiro[4.5]dec-1-ene-8-sulfonyl}-ethyl)-benzamide], the “cAMP production activity (%)” value was found to be 49%.

Regarding `Cc1cc(C(=O)N(C)C)ccc1-c1cccc(S(=O)(=O)N2CCC3(CC2)N=C(c2cccc(OC(F)(F)F)c2)NC3=O)n1` [Compound 337, 3,N,N-trimethyl-4-{6-[4-oxo-2-(3-trifluoromethoxy-phenyl)-1,3,8-triaza-spiro[4.5]dec-1-ene-8-sulfonyl]-pyridin-2-yl}-benzamide], the “cAMP production activity (%)” value was 17%.

Turning to `Cc1cc(OC[C@H](O)CO)cc(C)c1CCS(=O)(=O)N1CCC2(CC1)N=C(C1CCCCC1)NC2=O` [Compound 279, 2-cyclohexyl-8-{2-[4-((R)-2,3-dihydroxy-propoxy)-2,6-dimethyl-phenyl]-ethanesulfonyl}-1,3,8-triaza-spiro[4.5]dec-1-en-4-one], the “cAMP production activity (%)” value was determined as 67%.

For `O=C1NC(c2cccc(C(F)(F)F)c2)=NC12CCN(S(=O)(=O)c1cc3ccccc3s1)CC2` [Compound 68, 8-(benzo[b]thiophene-2-sulfonyl)-2-(3-trifluoromethyl-phenyl)-1,3,8-triaza-spiro[4.5]dec-1-en-4-one], the “cAMP production activity (%)” value is on record as 51%.

For the molecule `Cc1cc(C(=O)N2CCC(C)(O)CC2)cc(C)c1/C=C/S(=O)(=O)N1CCC2(CC1)N=C(c1cccc(C(C)(F)F)c1)NC2=O` [Compound 1206, 2-[3-(1,1-difluoro-ethyl)-phenyl]-8-{(E)-2-[4-(4-hydroxy-4-methyl-piperidine-1-carbonyl)-2,6-dimethyl-phenyl]-ethenesulfonyl}-1,3,8-triaza-spiro[4.5]dec-1-en-4-one], the “cAMP production activity (%)” value is 88%.

With `Cc1cc(N(C)C(N)=O)cc(C)c1CCS(=O)(=O)N1CCC2(CC1)N=C(CCCCCCCCCCCNC(=O)OC(C)(C)C)NC2=O` [Compound 1360, [11-(8-{2-[2,6-dimethyl-4-(1-methyl-ureido)-phenyl]-ethanesulfonyl}-4-oxo-1,3,8-triaza-spiro[4.5]dec-1-en-2-yl)-undecyl]-carbamic acid tert-butyl ester], the “cAMP production activity (%)” value was found to be 121%.

Take `CCCCC1CCN(C2=NC3(CCN(S(=O)(=O)CCc4ccc(C(=O)N(C)C)cc4C)CC3)C(=O)N2)CC1` [Compound 1403, 4-{2-[2-(4-Butyl-piperidin-1-yl)-4-oxo-1,3,8-triaza-spiro[4.5]dec-1-ene-8-sulfonyl]-ethyl}-3,N,N-trimethyl-benzamide]: the “cAMP production activity (%)” value is 66%.

As to `Cc1cc(S(=O)(=O)Nc2ccncc2)ccc1CCS(=O)(=O)N1CCC2(CC1)N=C(c1cccc(OC(F)(F)F)c1)NC2=O` [Compound 846, 3-methyl-4-{2-[4-oxo-2-(3-trifluoromethoxy-phenyl)-1,3,8-triaza-spiro[4.5]dec-1-ene-8-sulfonyl]-ethyl}-N-pyridin-4-yl-benzenesulfonamide], the “cAMP production activity (%)” value was determined as 47%.

For `COc1cc(C2=NC3(CCN(S(=O)(=O)CCc4ccc(C(=O)N(C)C)cc4C)CC3)C(=O)N2)ccn1` [Compound 119, 4-{2-[2-(2-methoxy-pyridin-4-yl)-4-oxo-1,3,8-triaza-spiro[4.5]dec-1-ene-8-sulfonyl]-ethyl}-3,N,N-trimethyl-benzamide], the “cAMP production activity (%)” value is 60%.

As for `Cc1cc(CN2C(=O)CNC2=O)cc(C)c1CCS(=O)(=O)N1CCC2(CC1)N=C(C1CCC(C)CC1)NC2=O` (stereo not drawn) [Compound 779, 3-(3,5-dimethyl-4-{2-[2-(4-methyl-cyclohexyl)-4-oxo-1,3,8-triaza-spiro[4.5]dec-1-ene-8-sulfonyl]-ethyl}-benzyl)-imidazolidine-2,4-dione], the “cAMP production activity (%)” value is 53%.

Turning to `CC(=O)NCCc1ccc(/C=C/S(=O)(=O)N2CCC3(CC2)N=C(C2CCCCC2)NC3=O)cc1` [Compound 481, N-(2-{4-[(E)-2-(2-cyclohexyl-4-oxo-1,3,8-triaza-spiro[4.5]dec-1-ene-8-sulfonyl)-vinyl]-phenyl}-ethyl)-acetamide], the “cAMP production activity (%)” value was 59%.

For `Cc1cc(C(=O)N(C)C)ccc1CCS(=O)(=O)N1CCC2(CC1)N=C(c1cccc(OC(F)(F)C(F)F)c1)NC2=O` [Compound 140, 3,N,N-trimethyl-4-(2-{4-oxo-2-[3-(1,1,2,2-tetrafluoro-ethoxy)-phenyl]-1,3,8-triaza-spiro[4.5]dec-1-ene-8-sulfonyl}-ethyl)-benzamide], the “cAMP production activity (%)” value stood at 77%.

Take `CCCCS(=O)(=O)N1CCC2(CC1)N=C(c1ccc(Cl)cc1Cl)NC2=O` [Compound 46, 8-(butane-1-sulfonyl)-2-(2,4-dichloro-phenyl)-1,3,8-triaza-spiro[4.5]dec-1-en-4-one]: the “cAMP production activity (%)” value was found to be 17%.

Take `O=C1NC(C2CCCCC2)=NC12CCN(S(=O)(=O)CCCc1cccc(C(F)(F)F)c1)CC2` [Compound 315, 2-cyclohexyl-8-[3-(3-trifluoromethyl-phenyl)-propane-1-sulfonyl]-1,3,8-triaza-spiro[4.5]dec-1-en-4-one]: the “cAMP production activity (%)” value was 26%.

As for `Cc1cc(C(=O)N2CCC[C@@H]2CO)ccc1CCS(=O)(=O)N1CCC2(CC1)N=C(c1cccc(C(F)(F)F)c1)NC2=O` [Compound 371, 8-{2-[4-((R)-2-hydroxymethyl-pyrrolidine-1-carbonyl)-2-methyl-phenyl]-ethanesulfonyl}-2-(3-trifluoromethyl-phenyl)-1,3,8-triaza-spiro[4.5]dec-1-en-4-one], the “cAMP production activity (%)” value turned out to be 72%.

For `Cc1cc(C(=O)N(C)C)ccc1CCS(=O)(=O)N1CCC2(CC1)N=C(c1cc(F)cc(C(F)(F)F)c1)NC2=O` [Compound 115, 4-{2-[2-(3-fluoro-5-trifluoromethyl-phenyl)-4-oxo-1,3,8-triaza-spiro[4.5]dec-1-ene-8-sulfonyl]-ethyl}-3,N,N-trimethyl-benzamide], the “cAMP production activity (%)” value is given as 81%.

On to `Cc1cc(C(=O)N2CC(F)(F)C(F)(F)C2)ccc1/C=C/S(=O)(=O)N1CCC2(CC1)N=C(C1CCCCC1)NC2=O` [Compound 203, 2-cyclohexyl-8-{(E)-2-[2-methyl-4-(3,3,4,4-tetrafluoro-pyrrolidine-1-carbonyl)-phenyl]-ethenesulfonyl}-1,3,8-triaza-spiro[4.5]dec-1-en-4-one], for which the “cAMP production activity (%)” value amounted to 25%.

In the case of `Cc1cc(C(=O)N2CCC(O)(CF)CC2)cc(C)c1/C=C/S(=O)(=O)N1CCC2(CC1)N=C(c1ccc(F)c(C(F)F)c1)NC2=O` [Compound 1256, 2-(3-difluoromethyl-4-fluoro-phenyl)-8-{(E)-2-[4-(4-fluoromethyl-4-hydroxy-piperidine-1-carbonyl)-2,6-dimethyl-phenyl]-ethenesulfonyl}-1,3,8-triaza-spiro[4.5]dec-1-en-4-one], the “cAMP production activity (%)” value came out at 72%.

As to `COCC(=O)N(C)c1ccc(/C=C/S(=O)(=O)N2CCC3(CC2)N=C(c2cccc(OC(F)(F)F)c2)NC3=O)c(C)c1` [Compound 450, 2-Methoxy-N-methyl-N-(3-methyl-4-{(E)-2-[4-oxo-2-(3-trifluoromethoxy-phenyl)-1,3,8-triaza-spiro[4.5]dec-1-ene-8-sulfonyl]-vinyl}-phenyl)-acetamide], the “cAMP production activity (%)” value is given as 56%.

On to `Cc1cc(C(=O)N2CCN(CCCN(C)C)CC2)ccc1CCS(=O)(=O)N1CCC2(CC1)N=C(c1cccc(C(F)(F)F)c1)NC2=O` [Compound 374, 8-(2-{4-[4-(3-dimethylamino-propyl)-piperazine-1-carbonyl]-2-methyl-phenyl}-ethanesulfonyl)-2-(3-trifluoromethyl-phenyl)-1,3,8-triaza-spiro[4.5]dec-1-en-4-one], for which the “cAMP production activity (%)” value is 79%.

On to `Cc1cc(N(C)C(N)=O)cc(C)c1/C=C/[S@TB3](=O)(=O)N1CCC2(CC1)N=C(c1ccc(F)c(OC(F)(F)F)c1)NC2=O` [Compound 1111, 1-(4-{(E)-2-[2-(4-fluoro-3-trifluoromethoxy-phenyl)-4-oxo-1,3,8-triaza-spiro[4.5]dec-1-ene-8-sulfonyl]-vinyl}-3,5-dimethyl-phenyl)-1-methyl-urea], for which the “cAMP production activity (%)” value is given as 79%.

On to `CC(=O)N[C@@H]1CCN(C(=O)c2ccc(CCS(=O)(=O)N3CCC4(CC3)N=C(c3cccc(C(F)(F)F)c3)NC4=O)c(C)c2)C1` [Compound 353, N—[(R)-1-(3-methyl-4-{2-[4-oxo-2-(3-trifluoromethyl-phenyl)-1,3,8-triaza-spiro[4.5]dec-1-ene-8-sulfonyl]-ethyl}-benzoyl)-pyrrolidin-3-yl]-acetamide], for which the “cAMP production activity (%)” value was found to be 120%.
